In the supplement of paper PMC10307832:

Experiments:
Assay in all cases: relative viability (nuclei count vs DMSO), 5 days (fraction); higher = more cells survive
[1] = compound: O[C@@H](COc1cccc2ncccc12)CN1CCN([C@@H]2c3ccccc3[C@@H]3[C@H](c4ccccc42)C3(F)F)CC1 [Zosuquidar] + O=C(c1cc(Cc2n[nH]c(=O)c3ccccc23)ccc1F)N1CCN(C(=O)C2CC2)CC1 [Olaparib] (partner 8 µM)
Summary of the method: (§1)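 Relative viability divides the nuclei count in treated wells by that in vehicle wells. Lung cancer cell lines were seeded in 1536-well plates, dosed by pin tool the next day, and fixed and stained after 5 days in one step with final 0.05% Triton X-100, 1% formaldehyde and 1 ug/ml Hoechst. Dosing was a single drug or a fixed anchor-drug dose plus five library-drug doses (not always all listed) in √10 steps, and values are medians of duplicate plates imaged at 4×.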

[2] = compound: O[C@@H](COc1cccc2ncccc12)CN1CCN([C@@H]2c3ccccc3[C@@H]3[C@H](c4ccccc42)C3(F)F)CC1 [Zosuquidar] + Cc1cc(Nc2cc(N3CCN(C)CC3)nc(Sc3ccc(NC(=O)C4CC4)cc3)n2)n[nH]1 [Tozasertib] (partner 0.1 µM)
Summary of the method: as §1

[3] = compound: COc1cc2nccc(Oc3ccc(NC(=O)C4(C(=O)Nc5ccc(F)cc5)CC4)cc3)c2cc1OC [Cabozantinib] + CC(C)C[C@H](NC(=O)[C@H](Cc1ccccc1)NC(=O)c1cnccn1)B(O)O [Bortezomib] (partner 0.002 µM)
Summary of the method: as §1

[4] = compound: O[C@@H](COc1cccc2ncccc12)CN1CCN([C@@H]2c3ccccc3[C@@H]3[C@H](c4ccccc42)C3(F)F)CC1 [Zosuquidar] + C[C@@H](Oc1cc(-c2cnn(C3CCNCC3)c2)cnc1N)c1c(Cl)ccc(F)c1Cl [Crizotinib] (partner 1 µM)
Summary of the method: as §1

Cell Line: UMC-11
- relative viability ([1]; first compound 0.01 µM): 0.505
- relative viability ([1]; first compound 0.03162 µM): 0.38
- relative viability ([1]; first compound 0.1 µM): 0.413
- relative viability ([1]; first compound 0.3162 µM): 0.385
- relative viability ([1]; first compound 1 µM): 0.34
- relative viability ([2]; first compound 0.01 µM): 0.207
- relative viability ([2]; first compound 0.03162 µM): 0.194
- relative viability ([2]; first compound 0.1 µM): 0.201
- relative viability ([2]; first compound 0.3162 µM): 0.208
- relative viability ([2]; first compound 1 µM): 0.194
- relative viability ([3]; first compound 0.02 µM): 0.669
- relative viability ([3]; first compound 0.06325 µM): 0.921
- relative viability ([3]; first compound 0.2 µM): 0.709
- relative viability ([3]; first compound 0.6325 µM): 0.649
- relative viability ([3]; first compound 2 µM): 0.815
- relative viability ([4]; first compound 0.01 µM): 0.494
- relative viability ([4]; first compound 0.03162 µM): 0.619
- relative viability ([4]; first compound 0.1 µM): 0.578
- relative viability ([4]; first compound 0.3162 µM): 0.622
- relative viability ([4]; first compound 1 µM): 0.564
